This is an account of results in ChEMBL document CHEMBL3632519, “Withanolides and Sucrose Esters from Physalis neomexicana” (J Nat Prod, 2015).

What is called IC50 is the concentration at which inhibition is half-maximal.

The test system of one assay is MDA-MB-231. Nature of the assay: Cytotoxicity against human MDA-MB-231 cells by MTT assay. Format: functional, cell-based. In general terms: Tetrazolium dyes change colour on reduction, which living cells bring about.
Another assay concerns MCF7. Nature of the assay: Cytotoxicity against human MCF7 cells by MTT assay. Format: functional, cell-based.

Consider `CC(=O)O[C@H]1C[C@H]([C@@](C)(O)[C@@H]2C[C@H](C)[C@@H](C)C(=O)O2)[C@@]2(C)CC[C@H]3[C@@H](C[C@H]4O[C@]45CC=CC(=O)[C@]35C)[C@@]12O`, for which the IC50 with MDA-MB-231 was 1.7 µM; in the assay with MCF7, 6.3 µM.

In the assay on MDA-MB-231, `CC1=C(CO)C(=O)O[C@@H]([C@@H](C)[C@H]2CC[C@H]3[C@@H]4C[C@H]5O[C@]56[C@@H](O)C=CC(=O)[C@]6(C)[C@H]4CC[C@]23C)C1` [WITHAFERIN A] registered an IC50 of 0.5 µM.

In the case of `CC1=C(C)C(=O)O[C@@H]([C@@H](C)[C@H]2CC[C@H]3[C@@H]4C[C@H]5O[C@]56[C@@H](O)C=CC(=O)[C@]6(CO)[C@H]4CC[C@]23C)C1` [WITHALONGOLIDE B], the values for the IC50 with MDA-MB-231 and in the assay on MCF7 were 0.2 µM and 0.8 µM, respectively.
